Measurements: a melting point compilation (Tetko et al.; mined from patent text by program, amines drawn as free bases though some values may be those of a salt)

| melting point | Structure (SMILES) |
| --- | --- |
| 164 to 165 °C | COc1ccc(-n2c(-c3cc(-c4ccccc4)c(N4CCOCC4)s3)nc3ccccc3c2=O)cc1 |
| 123 to 127 °C | CCCSc1ncc(CC(Cc2ccccc2)C(=O)O)n1Cc1ccccc1Cl (configuration not stated) |
| 165 to 166 °C | CC(C)(Oc1ccc(CCC(=O)c2ccc(-c3ccc(C(F)(F)F)cc3)s2)c(F)c1F)C(=O)O |
| 63 to 65 °C | CN(C)C(=O)COc1ccc(I)cc1 |
| 99 to 100 °C | CN(Cc1ccccc1)Cc1cnc(NC(=O)C(Cc2ccc(F)cc2)c2ccc(S(C)(=O)=O)cc2)cn1 (configuration not stated) |
| 150 °C | Cc1cc(CC2CCCCC2)c(NC(=O)OCc2ccccc2)c(=O)n1CC(=O)O |
| 179 to 181 °C | CC1CCC2(OC1)OC1CC3C4CCC5CC(O)CCC5(C)C4C=CC3(C)C1C2C (configuration not stated) |
| 83 to 85 °C | COC(=O)c1cccc(-c2ccccc2C#N)c1 |
| 104 to 105 °C | CC(=O)C=Cc1ccc(O)cc1 |
| 101 to 103 °C | COc1cc(Cl)nc(Nc2ccccc2)n1 |
| 122 to 123 °C | CSc1ccc2c(c1)Cc1ccc(C=O)cc1O2 |
| 161 to 162 °C | Cc1noc(NC(=O)N2CCN(c3nccc(-c4cccc(F)c4)n3)CC2)c1C |
| 216 °C | O=C1c2ccccc2C(=O)c2oc(-c3ccccc3Cl)nc21 |
| 234 to 238 °C | CC1COc2c(OC3CCN(C)CC3)c(F)cc3c(=O)c(C(=O)O)cn1c23 (configuration not stated) |
| 263 to 265 °C | O=[N+]([O-])c1cccc(C2Nn3cc(-c4ccc(-c5ccccc5)cc4)nc3S2)c1 (configuration not stated) |
| 80 to 81 °C | N#Cc1ccc(N2CCOCC2)cc1 |
| 226 to 227 °C | N#Cc1nc(C#Cc2ccccc2)c(C#Cc2ccccc2)nc1C#N |
| 145 to 149 °C | O=C(c1ccc(Cl)cc1)c1cc(-c2ccc(Cl)cc2)c(N2CCOCC2)s1 |
| 152 to 155 °C | C#Cc1cc(Cl)cc2nc(Cc3cc(C(C)(C)C)c(O)c(C(C)(C)C)c3)oc12 |
| 141 °C | CCOC(=O)c1cc(-c2ccc(OC)cc2)nn(C(C)C)c1=O |
| 80 to 82 °C | CCOC(=O)NCCCCCCNC(=O)OCC |
| 59.8 °C | CCOC(=O)C1Cc2c(OC)ccc(OC)c2CO1 (configuration not stated) |
| 98 to 99 °C | O=C(OC1CCN(Cc2ccccc2)CC1)c1ccccc1[N+](=O)[O-] |

| melting point | Structure (SMILES) |
| --- | --- |
| 117 to 119 °C | CCCNCc1cc2ccc(NC(=O)c3ccc(OC[C@@H]4CCCO4)cc3)c(C)c2[nH]1 |
| > 270 °C | CCCC1=C(C#N)C(c2ccccc2Cl)c2c(n[nH]c2-c2ccc3ccccc3c2)N1 (configuration not stated) |
| 92 to 95 °C | COC(=O)CCc1nc(C=O)ccc1O |
| 180 to 181 °C | N=C(NCCOc1cccc2[nH]c3ccccc3c12)c1cccs1 |
| 119 °C | CCN(CC)CCCNc1nc(Cl)nc(NCCCN(CC)CC)n1 |
| 146 to 148 °C | CCN(CC)c1nc(C)[nH]c2c(-c3ccc(Cl)cc3Cl)nc(C)c1-2 |
| 140 °C | Cc1cc(C)n2nc(SCc3ccccc3)c(C#N)c2n1 |
| 191 to 192 °C | O=c1[nH]nnn1-c1ccc(C(F)(F)F)cc1 |
| 92.5 to 93.6 °C | CC1=C(C(=O)c2ccc3c(c2)CN(C(N)=O)CC3)C(C)(C)CCC1 |
| 81 to 82 °C | CC(C)(C)OC(=O)N(CCN)CCN(CCN)C(=O)OC(C)(C)C |
| 75 to 76 °C | COC(=O)c1nc(Br)cc(Br)c1OCc1ccccc1 |
| 156 to 159 °C | COC(=O)COc1ccc2cc(-c3csc(-c4ccccc4)n3)ccc2c1Br |
| 102 to 104 °C | CCOC(=O)C1CCN(C(=O)CN2CCN(c3ccncc3)CC2)CC1 |
| 211 to 214 °C | Nc1ncnc2c1c(-c1cn[nH]c1)nn2Cc1oc2ccc(F)cc2c(=O)c1-c1ccccc1 |
| 84 to 85 °C | CCOCC(N=O)C(C)(C)Cl (configuration not stated) |
| 127 to 130 °C | CCOc1cc2c(Nc3cc(OC)c(Cl)cc3Cl)c(C#N)cnc2cc1OCCCN1CCN(CC)CC1 |
| 202 to 204 °C | COCCc1nc2c(N)nc3ccccc3c2n1Cc1ccccc1 |
| 112 to 115 °C | CCOC(=O)CN(Cc1ccccc1)c1ncnc2c(N3CCOCC3)nc(N3CCC(N(C)C)CC3)nc12 |
| 133 to 134 °C | COc1ccccc1C(NCC(=O)Nc1c(C(C)C)cccc1C(C)C)c1ccccc1 (configuration not stated) |
| 167 to 169 °C | COc1cc2c(cc1OC)CCCC(C(=O)N1CCN(Cc3cc(OC)c(OC)c(OC)c3)CC1CN(C)C)=C2 (configuration not stated) |
| 137 °C | CCC(=NNC(=O)C1CC1C)c1cccnc1 (configuration not stated) |
| 150 to 152 °C | ON=C(c1ccccc1)C(O)(c1ccccc1)c1ccccc1 |
| 278 to 280 °C | CC(=O)Nc1ccc(N)c2c1C(=O)C(O)(c1ccc(C(C)C)cc1O)C2=O (configuration not stated) |

| melting point | Structure (SMILES) |
| --- | --- |
| 140 to 142 °C | Cc1cc(-n2ccc(O)cc2=O)sc1C(=O)NCc1cccc(F)c1 |
| 217 to 218 °C | CC(C)(O)Cn1cnc2c(N)nc3cc(CCC(=O)N4CCOCC4)ccc3c21 |
| 188 to 190 °C | CCOC(=O)c1ccc2nc3ccsc3c(=O)n2c1 |
| 159 to 160 °C | CC(C)(C)c1cc(CCc2cc(F)cc(F)c2NC(=O)NCC(C)(C)c2ccc(Cl)c(Cl)c2)cc(C(C)(C)C)c1O |
| 143 to 144 °C | O=C(Cc1ccc(C(F)(F)F)cc1)c1ccccc1 |
| 117 °C | CCCCCCCCCCCCCCCCCCCCCC(=O)NN |
| 112 °C | CC(C)(C)c1cc(C(O)C#Cc2ccc(C(=O)O)cc2)ccc1N1CCCCC1 (configuration not stated) |
| 151 to 155 °C | O=C1c2ccccc2CN1C1CCN(c2ccc(Cc3ccccc3)cc2)CC1 |
| 202 to 205 °C | CC(=O)NC[C@H]1CN(c2ccc(C(=O)c3ccc[nH]3)cc2)C(=O)O1 |
| 210 to 225 °C | c1ccc(C2CC(Cc3ccncc3)(Cc3ccncc3)c3ccccc32)cc1 (configuration not stated) |
| 194 to 195 °C | NS(=O)(=O)c1cc2ccc(O)cc2[nH]1 |
| 66 to 70 °C | CCN(CC)c1nc(C(F)(F)C(F)(F)F)nn1-c1c(Cl)cc(Cl)cc1Cl |
| 94 to 97 °C | O=C(c1ccccc1)c1cc(Cl)ccc1CCCN1C(=O)c2ccccc2C1=O |
| 172 °C | COc1ccc(Nc2nc(Cl)nc(NC3CC3)n2)cc1Cl |
| 76 to 78 °C | CCC(=O)NCCC1CCc2cc(F)c(OC)cc21 (configuration not stated) |
| 105 to 107 °C | COc1ccc(CN2CCCc3cc(O)c(OC)cc3C2)cc1 |
| 105 °C | COc1ccc(C2=NN(Cc3ccccc3N)C(=O)SC2)cc1OC |
| 195 to 200 °C | N#Cc1ccc(CC(NC(=O)CC(NS(=O)(=O)c2ccc3ccccc3c2)c2ccccc2)C(=O)N2CCCC2)cc1 (configuration not stated) |
| 209 to 214 °C | Fc1ccc(-c2[nH]nc(C3=CCN4CCCC4C3)c2-c2ccncc2)cc1 (configuration not stated) |
| 121 to 124 °C | Clc1nc(Cl)c2ncn(C3CC3)c2n1 |
| 210 °C | CCOC1=CC(=O)N([C@@H]2c3cc(C#N)ccc3OC(C)(C)[C@H]2O)C1 |
| 176 to 178 °C | CCCCCCCCc1cc2c(cc1/C(C)=C/c1ccc(C(=O)O)cc1)C(C)(C)CCS2(=O)=O |
| 209 to 210 °C | COc1ccc(NC(=O)c2ccccc2)cc1Nc1ccccc1 |

| Structure (SMILES) | melting point |
| --- | --- |
| O=S1(=O)c2cccc3cccc(c23)N1CCN1CC=C(c2c[nH]c3ccccc23)CC1 | 208 °C |
| N#Cc1ccc(N2C(=O)C3C(O)CCCN3C2=O)c2ccccc12 (configuration not stated) | 243 °C |
| Cc1ccc2c(c1)CNCC2c1ccc(O)c(O)c1 (configuration not stated) | 192 to 195 °C |
